This experiment has as its system hepatitis C virus (HCV) genotype 1a H77c RNA. The experiment is described as follows: HCV replication in Huh7 cells (HCV RNA by quantitative RT PCR). The format is cell-based. Conditions: Huh7, 10 μM (antagomir transfected), 48 hours. The method, then:
Aberrantly regulated miR-122 is involved in the development of heptocellular carcinoma (HCC). miR-122 is a cellular component required by hepatitis C virus (HCV) for viral replication. […] Due to the efficient down-regulation of miRNA-122 by the small molecule inhibitors 1 and 2, both compounds were tested for their ability to inhibit HCV replication in Huh7 cells. The pHtat2Neo/QR/KR/FV/SI plasmid (provided by Dr. Stanley Lemon of University of Texas Medical Branch (UTMB)) was used to generate genotype 1a H77c RNA, which was subsequently transfected into Huh7 cells.^16 The cells were then either transfected with a miR-122 antagomir (positive control), or treated with compounds 1 and 2 (10 μM), or DMSO (negative control). After 48 hours, total RNA was isolated and HCV RNA levels were measured by quantitative RT PCR (FIG. 7). In agreement with previous reports, the antagomir reduced HCV RNA levels to 20%.^6 Moreover, the small molecule miR-122 inhibitors 1 and 2 elicited a reduction in viral load to 48% and 47%, respectively.
The pHtat2Neo/QR/KR/FV/SI plasmid (provided by Dr. Stanley Lemon)^16 was linearized using XbaI (10 units, 50 μL reaction; New England Biolabs), followed by transcription with T7 RNA Polymerase (6 h, 37° C.), and purification on Microcon 10 columns. Huh7 cells were then grown to 60% confluency in a 6 well plate and transfected with 1 μg RNA using X-tremGENE transfection reagent (Roche Applied Science, 3:2 reagent/RNA ratio) in Opti-Mem media (Invitrogen). After a 4 hour incubation at 37° C., the transfection media was removed and replaced with standard growth media (2 mL) supplemented with 10 μM of 1 or 2 (1% DMSO final concentration). All experiments were conducted in triplicate for statistical validation. […] Quantitative RT-PCR was then performed as previously described using the general HCV RT-PCR Primers (5′: […] 3′ (SEQ ID NO:7) and 5′ […] 3′) (SEQ ID NO:8) and GADPH primers (5′ […] 3′ (SEQ ID NO:9) and 5′ […] 3′) (SEQ ID NO:10) as a standard control.

For the compound `O=C(Nc1ccc2ccccc2c1)c1ccc(Cl)cc1Cl` [Compound 1], the “HCV RNA levels / viral load reduced to” value turned out to be 48%.
The result for `O=S(=O)(c1ccc2c(c1)CCCN2)N1CCC[C@H]2CCCC[C@@H]21` [Compound 2] reads 47%.

For the origin of these results see patent US20130005759A1, “SMALL MOLECULE MODIFIERS OF MICRORNA MIR-122” (North Carolina State University, priority 2010, published 2013).
